In brackets after ≈: the same amount, converted by molar mass. Read-outs that look alike come from different tables or passages of the source.
Columns and labels:
Assay in all cases: microbe, parasite or virus in culture
Parameters in all cases: species or system gram-positive clinical isolates
[1] = test system: Staphylococcus epidermidis MRSE 17-1; details: Staphylococcus epidermidis, MRSE
[2] = test system: Staphylococcus aureus MSSA 16-1; details: Staphylococcus aureus, MSSA
[3] = test system: Staphylococcus aureus MRSA 17-3; details: Staphylococcus aureus, MRSA
[4] = test system: Enterococcus faecalis EFA 15-58; details: Enterococcus faecalis
[5] = test system: Staphylococcus aureus MRSA 17-10; details: Staphylococcus aureus, MRSA
[6] = test system: Staphylococcus aureus MRSA 17-4; details: Staphylococcus aureus, MRSA
[7] = test system: Staphylococcus aureus MRSA 16-2; details: Staphylococcus aureus, MRSA
[8] = test system: Staphylococcus epidermidis MRSE 17-3; details: Staphylococcus epidermidis, MRSE
[9] = test system: Staphylococcus epidermidis MRSE 15-76; details: Staphylococcus epidermidis, MRSE
[10] = test system: Staphylococcus aureus MSSA 16-2; details: Staphylococcus aureus, MSSA
[11] = test system: Staphylococcus aureus MRSA 17-9; details: Staphylococcus aureus, MRSA
[12] = test system: Staphylococcus aureus MRSA 17-5; details: Staphylococcus aureus, MRSA
[13] = test system: Enterococcus faecium EFM 15-6; details: Enterococcus faecium
[14] = test system: Enterococcus faecalis EFA 15-60; details: Enterococcus faecalis
[15] = test system: Staphylococcus aureus MRSA 17-7; details: Staphylococcus aureus, MRSA
[16] = test system: Staphylococcus aureus MRSA 15-2; details: Staphylococcus aureus, MRSA
[17] = test system: Staphylococcus aureus MRSA 17-8; details: Staphylococcus aureus, MRSA
[18] = test system: Enterococcus faecium EFM 15-52; details: Enterococcus faecium
[19] = test system: Enterococcus faecalis EFA 15-55; details: Enterococcus faecalis
[20] = test system: Staphylococcus epidermidis MRSE 15-1; details: Staphylococcus epidermidis, MRSE
[21] = test system: Staphylococcus aureus MSSA 15-2; details: Staphylococcus aureus, MSSA
[22] = test system: Enterococcus faecalis EFA 15-2; details: Enterococcus faecalis
[23] = test system: Staphylococcus aureus MSSA 15-5; details: Staphylococcus aureus, MSSA
[24] = test system: Enterococcus faecalis EFA 15-68; details: Enterococcus faecalis
[25] = test system: Staphylococcus epidermidis MRSE 15-82; details: Staphylococcus epidermidis, MRSE
[26] = test system: Enterococcus faecium EFM 15-2; details: Enterococcus faecium
[27] = test system: Staphylococcus aureus MRSA 17-2; details: Staphylococcus aureus, MRSA
[28] = read-out: MIC(μg/ml) / vancomycin

SMILES: CCCCCOc1ccc(C(=O)NNC(=S)NC(C)=O)cc1 [1b, N-(2-(4-(n-pentoxy)benzoyl)hydrazine-1-carbonothioyl)acetamide]
- MIC ([1]; read-out: MIC(μg/ml) / 1b): 0.5 µg/mL (≈ 1.55 µM)
- MIC ([2]; read-out: MIC(μg/ml) / 1b): 1 µg/mL (≈ 3.09 µM)
- MIC ([3]; read-out: MIC(μg/ml) / 1b): 2 µg/mL (≈ 6.18 µM)
- MIC ([4]; EFA1558, read-out: MIC(μg/ml) / 1b): 4 µg/mL (≈ 12.4 µM)
- MIC ([5]; read-out: MIC(μg/ml) / 1b): 2 µg/mL (≈ 6.18 µM)
- MIC ([6]; read-out: MIC(μg/ml) / 1b): 2 µg/mL (≈ 6.18 µM)
- MIC ([7]; read-out: MIC(μg/ml) / 1b): 2 µg/mL (≈ 6.18 µM)
- MIC ([8]; read-out: MIC(μg/ml) / 1b): 1 µg/mL (≈ 3.09 µM)
- MIC ([9]; read-out: MIC(μg/ml) / 1b): 2 µg/mL (≈ 6.18 µM)
- MIC ([10]; read-out: MIC(μg/ml) / 1b): 1 µg/mL (≈ 3.09 µM)
- MIC ([11]; read-out: MIC(μg/ml) / 1b): 2 µg/mL (≈ 6.18 µM)
- MIC ([12]; read-out: MIC(μg/ml) / 1b): 2 µg/mL (≈ 6.18 µM)
- MIC ([13]; EFM156, read-out: MIC(μg/ml) / 1b): 2 µg/mL (≈ 6.18 µM)
- MIC ([14]; EFA1560, read-out: MIC(μg/ml) / 1b): 8 µg/mL (≈ 24.7 µM)
- MIC ([15]; read-out: MIC(μg/ml) / 1b): 2 µg/mL (≈ 6.18 µM)
- MIC ([16]; read-out: MIC(μg/ml) / 1b): 4 µg/mL (≈ 12.4 µM)
- MIC ([17]; read-out: MIC(μg/ml) / 1b): 2 µg/mL (≈ 6.18 µM)
- MIC ([18]; EFM1552, read-out: MIC(μg/ml) / 1b): 8 µg/mL (≈ 24.7 µM)
- MIC ([19]; EFA1555, read-out: MIC(μg/ml) / 1b): 8 µg/mL (≈ 24.7 µM)
- MIC ([20]; read-out: MIC(μg/ml) / 1b): 4 µg/mL (≈ 12.4 µM)
- MIC ([21]; read-out: MIC(μg/ml) / 1b): 2 µg/mL (≈ 6.18 µM)
- MIC ([22]; EFA152, read-out: MIC(μg/ml) / 1b): 8 µg/mL (≈ 24.7 µM)
- MIC ([23]; read-out: MIC(μg/ml) / 1b): 2 µg/mL (≈ 6.18 µM)
- MIC ([24]; EFA1568, read-out: MIC(μg/ml) / 1b): 4 µg/mL (≈ 12.4 µM)
- MIC ([25]; read-out: MIC(μg/ml) / 1b): 1 µg/mL (≈ 3.09 µM)
- MIC ([26]; EFM152, read-out: MIC(μg/ml) / 1b): 4 µg/mL (≈ 12.4 µM)
- MIC ([27]; read-out: MIC(μg/ml) / 1b): 4 µg/mL (≈ 12.4 µM)

SMILES: CN[C@H](CC(C)C)C(=O)N[C@H]1C(=O)N[C@@H](CC(N)=O)C(=O)N[C@H]2C(=O)N[C@H]3C(=O)N[C@H](C(=O)N[C@H](C(=O)O)c4cc(O)cc(O)c4-c4cc3ccc4O)[C@H](O)c3ccc(c(Cl)c3)Oc3cc2cc(c3O[C@@H]2O[C@H](CO)[C@@H](O)[C@H](O)[C@H]2O[C@H]2C[C@](C)(N)[C@H](O)[C@H](C)O2)Oc2ccc(cc2Cl)[C@H]1O [vancomycin]
- MIC [1, 28]: 1 µg/mL (≈ 0.69 µM)
- MIC [2, 28]: 0.5 µg/mL (≈ 0.345 µM)
- MIC [3, 28]: 1 µg/mL (≈ 0.69 µM)
- MIC ([4]; EFA1558, read-out: MIC(μg/ml) / vancomycin): 0.5 µg/mL (≈ 0.345 µM)
- MIC [5, 28]: 1 µg/mL (≈ 0.69 µM)
- MIC [6, 28]: 1 µg/mL (≈ 0.69 µM)
- MIC [7, 28]: 1 µg/mL (≈ 0.69 µM)
- MIC [8, 28]: 2 µg/mL (≈ 1.38 µM)
- MIC [9, 28]: 2 µg/mL (≈ 1.38 µM)
- MIC [10, 28]: 0.5 µg/mL (≈ 0.345 µM)
- MIC [11, 28]: 0.5 µg/mL (≈ 0.345 µM)
- MIC [12, 28]: 0.5 µg/mL (≈ 0.345 µM)
- MIC ([13]; EFM156, read-out: MIC(μg/ml) / vancomycin): 1 µg/mL (≈ 0.69 µM)
- MIC ([14]; EFA1560, read-out: MIC(μg/ml) / vancomycin): 8 µg/mL (≈ 5.52 µM)
- MIC [15, 28]: 0.25 µg/mL (≈ 0.173 µM)
- MIC [16, 28]: 2 µg/mL (≈ 1.38 µM)
- MIC [17, 28]: 0.5 µg/mL (≈ 0.345 µM)
- MIC ([18]; EFM1552, read-out: MIC(μg/ml) / vancomycin): 2 µg/mL (≈ 1.38 µM)
- MIC ([19]; EFA1555, read-out: MIC(μg/ml) / vancomycin): 0.5 µg/mL (≈ 0.345 µM)
- MIC [20, 28]: 2 µg/mL (≈ 1.38 µM)
- MIC [21, 28]: 1 µg/mL (≈ 0.69 µM)
- MIC ([22]; EFA152, read-out: MIC(μg/ml) / vancomycin): 0.5 µg/mL (≈ 0.345 µM)
- MIC [23, 28]: 0.5 µg/mL (≈ 0.345 µM)
- MIC ([24]; EFA1568, read-out: MIC(μg/ml) / vancomycin): 0.5 µg/mL (≈ 0.345 µM)
- MIC [25, 28]: 1 µg/mL (≈ 0.69 µM)
- MIC ([26]; EFM152, read-out: MIC(μg/ml) / vancomycin): 2 µg/mL (≈ 1.38 µM)
- MIC [27, 28]: 0.5 µg/mL (≈ 0.345 µM)
